This is an account of results in ChEMBL document CHEMBL3351849, “Synthesis, biological activity and mechanistic insights of 1-substituted cyclopropylamine derivatives: a novel class of irreversible inhibitors of histone demethylase KDM1A” (Eur J Med Chem, 2014).

Structures are written as SMILES. Calls of active or inactive are those of the source. The rule behind the calls is not given here.

In experiment [1] the target is T1, Amine oxidase [flavin-containing] B (Homo sapiens, UniProt P27338).
T1 sequence (P27338 whole entry): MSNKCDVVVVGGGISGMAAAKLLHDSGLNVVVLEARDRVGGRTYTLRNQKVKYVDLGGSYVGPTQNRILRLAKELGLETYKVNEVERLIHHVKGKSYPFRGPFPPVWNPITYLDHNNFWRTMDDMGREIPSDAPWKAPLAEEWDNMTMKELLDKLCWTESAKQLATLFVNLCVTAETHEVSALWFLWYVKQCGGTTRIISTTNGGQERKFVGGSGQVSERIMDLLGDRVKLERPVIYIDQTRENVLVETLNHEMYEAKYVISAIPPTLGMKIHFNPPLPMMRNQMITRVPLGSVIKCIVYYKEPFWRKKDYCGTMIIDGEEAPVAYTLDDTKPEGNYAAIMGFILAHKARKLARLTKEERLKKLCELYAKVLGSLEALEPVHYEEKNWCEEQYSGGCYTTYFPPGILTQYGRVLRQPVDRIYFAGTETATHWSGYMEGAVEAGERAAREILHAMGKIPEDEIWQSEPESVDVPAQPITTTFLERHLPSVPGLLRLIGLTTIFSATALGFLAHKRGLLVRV

Experiment [2] concerns the target T2, Amine oxidase [flavin-containing] A (Homo sapiens, UniProt P21397).
T2 sequence (P21397 whole entry): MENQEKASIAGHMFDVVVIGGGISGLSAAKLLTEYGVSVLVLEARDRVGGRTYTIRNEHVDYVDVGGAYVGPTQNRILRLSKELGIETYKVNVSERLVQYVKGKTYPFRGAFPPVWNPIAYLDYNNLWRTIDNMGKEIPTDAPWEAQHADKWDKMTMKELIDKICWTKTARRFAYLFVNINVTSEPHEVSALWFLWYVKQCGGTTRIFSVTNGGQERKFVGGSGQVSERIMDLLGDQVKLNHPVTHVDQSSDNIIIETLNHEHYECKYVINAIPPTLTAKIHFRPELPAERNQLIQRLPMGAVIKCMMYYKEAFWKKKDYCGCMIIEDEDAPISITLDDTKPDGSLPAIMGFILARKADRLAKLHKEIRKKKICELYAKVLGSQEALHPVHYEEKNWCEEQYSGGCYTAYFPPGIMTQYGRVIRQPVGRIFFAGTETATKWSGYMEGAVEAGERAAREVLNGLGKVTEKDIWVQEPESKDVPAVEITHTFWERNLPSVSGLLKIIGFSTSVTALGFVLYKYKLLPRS

The target in experiment [3] is T3, Lysine-specific histone demethylase 1A (Homo sapiens, UniProt O60341). The experiment is described as follows: Inhibition of human recombinant KDM1A/CoREST expressed in Escherichia coli assessed as reduction in H2O2 release at 22 uM using synthetic mono-methylated H3-K4 peptide (21 amino acids) substrate by horseradish peroxidase coupled enzyme assay.
Experiment [4] deals with T3, Lysine-specific histone demethylase 1A.
For experiment [5] the target is unchanged. As to the kind of experiment: Inhibition of human recombinant KDM1A/CoREST expressed in Escherichia coli assessed as reduction in H2O2 release at 100 uM using synthetic mono-methylated H3-K4 peptide (21 amino acids) substrate by horseradish peroxidase coupled enzyme assay.
Experiment [6] shares this target. This is another data set of the same source.
The target is the same in experiment [7]. The experiment is described as follows: Inhibition of KDM1A in human NB4 cells assessed as increase in Gfi-1b mRNA expression up to 100 uM incubated for 24 hrs by quantitative RT-PCR method. Particulars: NB-4. It is filed as cell-based.

`CC[C@@]1(N)C[C@H]1c1ccccc1`: the IC50 – broadly, the concentration needed to halve the response being measured – in experiment [1] came out at 33.3 µM; in experiment [2], 6.8 µM. The corresponding values for `N[C@]1(c2ccccc2)C[C@H]1c1ccccc1` are 5.55 µM and 0.235 µM. The corresponding values for `N[C@]1(Cc2ccccc2)C[C@H]1c1ccccc1` are 28.1 µM and 2.59 µM. As for `CC[C@]1(N)C[C@@H]1c1ccccc1`, the results for the IC50 in experiment [1] and in experiment [2] were 0.088 µM and 1.43 µM, respectively. The corresponding values for `N[C@@]1(c2ccccc2)C[C@@H]1c1ccccc1` are 11.5 µM and 0.094 µM. The corresponding values for `N[C@@]1(Cc2ccccc2)C[C@@H]1c1ccccc1` are 74.3 µM and 8.31 µM. Turning to `NCC(=O)c1ccccc1`, in experiment [3], the inhibition (usually the drop in the measured response relative to a control, in per cent) came out at 30%.

As for `N[C@]1(CCc2ccccc2)C[C@H]1c1ccccc1` (racemic), the values for the IC50 in experiment [1] and in experiment [2] were 0.941 µM and 0.0214 µM, respectively.

With `CC[C@@]1(N)C[C@@H]1c1ccccc1` (relative stereo), the IC50 in experiment [1] came to 0.19 µM; in experiment [2] it was 1.92 µM. For the molecule `CCC[C@@]1(N)C[C@H]1c1ccccc1` (relative stereo), the IC50 in experiment [1] turned out to be 0.6 µM; in experiment [2], 0.527 µM. The like results for `N[C@@]1(c2ccccc2)C[C@H]1c1ccccc1` (relative stereo) were, in that order, 10.4 µM and 0.0828 µM. `N[C@]1(Cc2ccccc2)C[C@@H]1c1ccccc1` (relative stereo): the IC50 in experiment [1] was 50.5 µM; in experiment [2], 3.51 µM. `N[C@]1(Cc2ccc3ccccc3c2)C[C@H]1c1ccccc1` (relative stereo): the IC50 was determined as 12.7 µM in experiment [1] and 1.3 µM in experiment [2]. Turning to `CCOC(=O)[C@]1(N)C[C@H]1c1ccccc1` (relative stereo), the IC50 in experiment [4] is over 100 µM. The inhibition in experiment [5] was found to be 11%. The like results for `N[C@@]1(C(=O)O)C[C@H]1c1ccccc1` (relative stereo) were, in that order, over 100 µM and 21%. On to `NC[C@@H]1C[C@H]1c1ccccc1` (relative stereo), for which the inhibition in experiment [5] was found to be 0%. On the same count and under the same terms, the same measure for `N[C@@H]1C[C@@H]1Oc1ccccc1` (relative stereo): 0%; for `N[C@H]1C[C@@H]1Oc1ccccc1` (relative stereo): 0%. Take `C#CCN(C)CCCOc1ccc(Cl)cc1Cl` [CLORGILINE]: the IC50 result in experiment [6] is listed as “Not Active”. Also, the inhibition entry in experiment [7] is “inactive”.
